Results reported in patent US20020103228A1, “Composition and method for use of pyridinium derivatives in cosmetic and therapeutic applications” (TORRENT PHARMACEUTICALS LTD., priority 1999, published 2002).

Legend:
AGE-BSA = molecular target: T1, AGE-BSA (Bos taurus, UniProt P02769); test: In-vitro AGE breaking activity by ELISA; format: biochemical, Bovine; conditions: 37° C., 24 hours
T1 construct: Bovine serum albumin (fraction V) (BSA); from tissue; host or cells: bovine serum (fraction V); glycated in house with 1.6 M glucose at 37 °C for 16 weeks
T1 sequence (P02769 25-607): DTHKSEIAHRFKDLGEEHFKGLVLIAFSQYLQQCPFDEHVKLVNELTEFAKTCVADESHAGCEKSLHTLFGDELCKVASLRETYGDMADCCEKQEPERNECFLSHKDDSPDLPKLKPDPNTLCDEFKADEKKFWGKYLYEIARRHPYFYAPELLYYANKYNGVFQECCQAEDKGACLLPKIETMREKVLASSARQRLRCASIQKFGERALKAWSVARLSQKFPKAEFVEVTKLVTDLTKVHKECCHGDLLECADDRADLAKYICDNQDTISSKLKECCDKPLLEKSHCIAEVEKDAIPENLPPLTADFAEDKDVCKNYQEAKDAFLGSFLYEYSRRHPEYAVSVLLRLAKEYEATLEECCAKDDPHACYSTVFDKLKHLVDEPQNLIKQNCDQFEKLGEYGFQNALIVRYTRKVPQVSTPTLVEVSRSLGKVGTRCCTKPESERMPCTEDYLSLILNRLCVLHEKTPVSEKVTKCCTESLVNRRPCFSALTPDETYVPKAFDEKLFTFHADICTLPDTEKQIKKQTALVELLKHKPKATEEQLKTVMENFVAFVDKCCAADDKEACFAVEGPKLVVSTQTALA
Protocol: AGE breaking activity has been confirmed by the screening procedure as mentioned below:
Methods of experiment: Elisa (Enzyme Linked Immunosorbent Assay)
160 mg/ml of protein, bovine serum albumin, BSA and 1.6M glucose sugar were dissolved in phosphate buffered saline, PBS. Sodium azide was added at 0.02% concentration as a preservative. The solution was filtered asceptically through a […] filter and kept for aging at 37° C. for 16 weeks. After 16 weeks the solution was dialyzed against PBS, aliquoted and stored at −20° C.
To determine the AGE breaking activity, 10 μg/ml of the 16 weeks AGE-BSA was incubated with different concentrations of the test compounds at 37° C. for 24 hours and AGE breaking activity of the test compounds by ELISA was determined.
ELISA was performed as follows
1. Different concentrations of 16 weeks AGE-BSA were coated on a microtiter plate as standard. Each concentration is coated in triplicates.
2. The test samples were coated on microtiter plate at a concentration of 5 ng to 20 ng per well in triplicates
3. The plate was incubated at 37° C. for one hour.
4. After incubation the plate was washed with PBST (PBS with 0.05% Tween 20).
5. Blocking with 5% skimmed milk in PBS at 37° C. for one hour was done.
6. The plate was washed with PBST.
7. Primary antibody against AGE-BSA was added and the plate is incubated at 37° C. for one hour.
8. The plate was washed with PBST
9. Secondary antibody anti rabbit HRPO (Horse-Radish Per Oxidase) conjugate was added and the plate is incubated at 37° C. for one hour.
10. The plate was washed with PBST.
11. Colour development with OPD (orthophenylenediamine dihydrochloride) and hydrogen peroxide was done.
12. OD (optical density) at (450 nm reading-620 nm reading) was measured after incubation at 37° C. for 15 minutes with Microplate ELISA Reader
The breaker activity of the compounds were determined by the following formula: [formula]
OD450-620Control=Absorbance of 20 ng AGE-BSA after incubation at 37° C. for 24 hours without test compound
OD450-620Test=Absorbance of 20 ng AGE-BSA after incubation at 37° C. for 24 hours with required concentration of test compound
Using specific examples, the % AGE breaking activity was calculated and recorded in Table 2.

[1] = Free radical scavenging activity on ABTS radical cation; format: biochemical
Protocol: This method measures the relative ability of free radical scavenging substances to scavenge the ABTS^.+ i.e. 2,2-Azino-bis-(3-ethyl benzo thiazoline-6-sulfonate) radical cation as compared to a standard amount of standard or free radical scavengers antioxidants. Incubation of ABTS with Peroxidase (metmyoglobin) and hydrogen peroxide results in the production of radical cation ABTS^.+. This species is blue-green in colour and can be detected at 730 nm. Antioxidants or free radical scavengers in the added sample that causes suppression of the color to a degree that is proportional to their concentration.
Preparation of Buffer Solutions
A. Phosphate Citrate Buffer (pH 5.0). 48.5 ml of 0.1M citric acid with sufficient 0.2M disodium hydrogen phosphate to produce 100 ml.
B. Phosphate Buffer Saline (PBS): Dissolve 40.0 g of NaCl, 1.0 g of KCl, 1.0 g of KH2PO4 and 3.05 g of Na2HPO4 in 1 liter milli-Q water. Dilute 200 ml of above solution to 1 liter with milli-Q water (pH 7.4-7.6).
C. 3 μM stock solution of Peroxidase was prepared in phosphate buffer saline pH 7.4(PBS).
D. 1.08 mM stock solution of Hydrogen peroxide was prepared in phosphate buffer saline pH 7.4 (PBS).
Preparation of ABTS Stock Solution
1 tablet (10 mg) was dissolved in phosphate citrate buffer (pH 5.0).
Preparation of ABTS Working Solution
5.0 ml of ABTS stock solution was diluted with PBS to 20 ml.
Preparation of Horse Radish Peroxidase Stock Solution
320 μg of the enzyme was dissolved in 2.5 ml of PBS.
Preparation of Hydrogen Peroxide (1.08 mM) Solution
12 μl of Hydrogen Peroxide (30% w/v) was diluted to 100 ml with PBS. […]
Preparation of ABTS Radical Stock Solution
To 18 ml of ABTS stock solution, 100 μl of Horseradish Peroxidase stock solution was added.
As soon as 1.5 ml of hydrogen peroxide solution was added to the above solution, blue-green colour of the ABTS radicals appeared. This solution was incubated at 30° C. for 30 min.
Preparation of Control Solution
980 μl of ABTS radical stock solution was added to an eppendorf tube. To it was added 100 μl of various PBS solution.
Preparation of test Solution
980 μl of ABTS radical stock solutions were added to different eppendorf tubes. To it were added 100 μl of various concentrations of drug solution.
Measurement of Absorbance (O.D)
The absorbance of control and test samples was recorded immediately at 730 nm taking PBS as blank.
Calculation: The percent antioxidant activity was calculated according to the formula. % Antioxidant activity=[O.D of test sample/O.D of control*100]−100.

| SMILES | % Breakage (AGE-BSA; 10 mM test compound) | also measured |
| --- | --- | --- |
| CCOC(=O)C[n+]1cccc(C(=O)NNc2ccccn2)c1.[Br-] [Compound 4, 1-(2-ethoxy-2-oxoethyl)-3-(2-(2-pyridyl)hydrazinocarbonyl)pyridinium bromide] | 30% | Relative Free Radical Scavenging Activity (%) on ABTS ([1]; 11.5 μM): 58.2%; Relative Free Radical Scavenging Activity (%) on ABTS ([1]; 23.0 μM): 64.3%; Relative Free Radical Scavenging Activity (%) on ABTS ([1]; 46.0 μM): 69.3%; Relative Free Radical Scavenging Activity (%) on ABTS ([1]; 92.5 μM): 98.6%; Relative Free Radical Scavenging Activity (%) on ABTS ([1]; 925 μM): 100% |
| CCOC(=O)C[n+]1cccc(C(=O)OCCOC(=O)c2ccccc2)c1.[Br-] [Compound 17, 1-(2-ethoxy-2-oxoethyl)-3-(2-(benzoyloxy)ethyloxycarbonyl)pyridinium bromide] | 19% |  |
| O=C(C[n+]1cccc(C(=O)NCCOC(=O)c2ccccc2)c1)Nc1ccccc1.[Cl-] [Compound 23, 1-(2-phenylamino-2-oxoethyl)-3-((benzoyloxy)ethylaminocarbonyl)pyridinium chloride] | 37% | % Breakage (AGE-BSA; 25 mM test compound): 90% |
| O=C(NNC(=O)c1ccc[n+](CC(=O)c2ccco2)c1)c1ccc[n+](CC(=O)c2ccco2)c1.[Br-].[Br-] [Compound 32, N,N′-bis[3-carbonyl-1-(2-furan-2′-yl-2-oxoethyl)pyridinium]hydrazine dibromide] | 14% |  |
| COCCNC(=O)c1ccc[n+](CC(=O)NC2CC2)c1.[Cl-] [Compound 40, 1-(2-cyclopropylamino-2-oxoethyl)-3-(2-methoxyethylaminocarbonyl)-pyridinium chloride] | 12.38% |  |
| O=C(NNC(=O)c1cccnc1Cl)c1ccc[n+](CC(=O)c2cccs2)c1.[Cl-] [Compound 42, 1-(2-thien-2′yl-2-oxoethyl)-3-(2-(2-chloro-3-pyridoyl)hydrazinocarbonyl)-pyridinium chloride] | 12.51% |  |
| CC(C)NC(=O)C[n+]1cccc(C(=O)NNS(C)(=O)=O)c1.[Cl-] [Compound 43, 1-(2-isopropylamino-2-oxoethyl)-3-(2-methylsulfonylhydrazinocarbonyl)-pyridinium chloride] | 10.85% |  |
| COCCNC(=O)c1cc(Br)c[n+](CC(=O)c2cccs2)c1.[Cl-] [Compound 47, 1-(2-thien-2′-yl-2-oxoethyl)-3-((2-methoxyethyl)aminocarbonyl)-5-bromo pyridinium chloride] | 32.38% |  |
| Cc1ccc(C(=O)NNC(=O)c2ccc[n+](CC(=O)c3cccs3)c2)c[n+]1CC(=O)c1cccs1.[Cl-].[Cl-] [Compound 49, 1-[1-(2-thien-2′yl-2-oxoethyl)-6-methyl-3-carbonylpyridinium]-2-[1-(2-Thien-2′-yl-2-oxoethyl)-3-carbonylpyridinium]hydrazine dichloride] |  | % Breakage (AGE-BSA; 2.5 mM test compound): 85.67% |
| CCOC(=O)C1CCCN1C(=O)C[n+]1cccc(C(=O)NNS(C)(=O)=O)c1.[Cl-] (centres unmarked) [Compound 52, 1-(2-(2-ethoxycarbonylpyrrolidin-1-yl)-2-oxoethyl)-3-(methanesulfonyl hydrazinocarbonyl)pyridinium chloride] | 25.34% |  |
| CS(=O)(=O)NNC(=O)c1cc(Br)c[n+](CC(=O)c2cccs2)c1.[Br-] [Compound 53, 1-(2-thien-2′-yl-2-oxoethyl)-3-(methanesulfonyl hydrazinocarbonyl)-5-bromo pyridinium bromide] |  | % Breakage (AGE-BSA; 2.5 mM test compound): 29.36% |
| Cc1ccc(C(=O)NNS(C)(=O)=O)c[n+]1CC(=O)c1cccs1.[Br-] [Compound 57, 1-(2-thien-2′-yl-2-oxoethyl)-3-(methanesulfonyl hydrazinocarbonyl)-6-methyl pyridinium bromide] |  | % Breakage (AGE-BSA; 1 mM test compound): 77.69% |
| Cc1ccc(C(=O)C[n+]2cccc(C(=O)NNC(=O)c3ccc[n+](CC(=O)c4ccc(C)s4)c3)c2)s1.[Cl-].[Cl-] [Compound 58, N,N′-bis[3-carbonyl-1-(2-(5-methylthien-2-yl)-2-oxoethyl)pyridinium]hydrazine dichloride] | 81.95% |  |
| CCOC(=O)C1CCCN1C(=O)C[n+]1cccc(C(=O)NNC(=O)c2ccc[n+](CC(=O)N3CCCC3C(=O)OCC)c2)c1.[Cl-].[Cl-] (centres unmarked) [Compound 59, N,N′-bis[3-carbonyl-1-(2-(2-ethoxycarbonylpyrrolidin-1-yl)-2-oxoethyl)pyridinium]hydrazine dichloride] | 20.31% |  |
| CCOC(=O)C1CSCN1C(=O)C[n+]1cccc(C(=O)NNS(C)(=O)=O)c1.[Cl-] (centres unmarked) [Compound 61, 1-(2-(4-carboethoxy-thiazolidin-3-yl)-2-oxoethyl)-3-(methanesulfonyl hydrazinocarbonyl)pyridinium chloride] | 25.06% |  |
| O=C(NNC(=O)c1ccc[n+](CC(=O)c2ccc(Cl)s2)c1)c1ccc[n+](CC(=O)c2ccc(Cl)s2)c1.[Cl-].[Cl-] [Compound 62, N,N′-bis[3-carbonyl-1-(2-(5-chlorothien-2-yl)-2-oxoethyl)pyridinium]hydrazine dichloride] | 78.41% |  |
| O=C(C[n+]1ccc(C(=O)NCCOC(=O)c2ccccc2)cc1)Nc1ccccc1.[Cl-] [Compound 66, 1-(2-phenylamino-2-oxoethyl)-4-[2-(benzoyloxy)ethylaminocarbonyl]pyridinium chloride] | 19.07% |  |
| NC(=O)c1ccc[n+](CC(=O)c2cccs2)c1.[Br-] [Compound 85, 3-Carbonylamino-1-(2-thien-2′-yl-2-oxoethyl)-pyridinium bromide] | 3% |  |
| CCOC(=O)C[n+]1cccc(C(=O)NCCO)c1.[Br-] [Compound 87, 1-(2-Ethoxy-2-oxoethyl)-3-((2-hydroxyethyl)aminocarbonyl)pyridinium bromide] | 43% |  |
| CCCCNC(=O)c1ccc[n+](CC(=O)Nc2ccccc2)c1.[Cl-] [Compound 94, 1-(2-Phenylamino-2-oxoethyl)-3-(n-butylaminocarbonyl)pyridinium chloride] | 27% |  |
| O=C(C[n+]1cccc(C(=O)NCCO)c1)Nc1ccccc1.[Cl-] [Compound 95, 1-(2-Phenylamino-2-oxoethyl)-3-((2-hydroxyethyl)aminocarbonyl)-pyridinium chloride] |  | % Breakage (AGE-BSA; 20 mM test compound): 48% |
| O=C(C[n+]1ccsc1)c1ccccc1.[Br-] [PTB, reference compound] | 27% | % Breakage (AGE-BSA; 20 mM test compound): 47% |
